Where “and” joins values, the source holds several entries; their conditions need not be identical. Identical values can stand only once. Calls of active or inactive are those of the source.
Experiments:
[1] = target: Ras and Rab interactor 1/Tyrosine-protein kinase ABL1 (Homo sapiens, UniProt P00519+Q13671); type: functional;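 also: biochemical TR-FRET dose-response test measuring inhibition of binding between Rin1 and Abl proteins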
[2] = target: DNA (cytosine-5)-methyltransferase 1 (Homo sapiens, UniProt P26358); assay: inhibition of DNA methylation by DNMT1 – biochemical, fluorescent molecular beacon, confirmation (AID 602386); type: functional
[3] = target: T1, Histone-lysine N-methyltransferase NSD2 (Homo sapiens, UniProt O96028); type: biochemical
T1 sequence (O96028 whole entry): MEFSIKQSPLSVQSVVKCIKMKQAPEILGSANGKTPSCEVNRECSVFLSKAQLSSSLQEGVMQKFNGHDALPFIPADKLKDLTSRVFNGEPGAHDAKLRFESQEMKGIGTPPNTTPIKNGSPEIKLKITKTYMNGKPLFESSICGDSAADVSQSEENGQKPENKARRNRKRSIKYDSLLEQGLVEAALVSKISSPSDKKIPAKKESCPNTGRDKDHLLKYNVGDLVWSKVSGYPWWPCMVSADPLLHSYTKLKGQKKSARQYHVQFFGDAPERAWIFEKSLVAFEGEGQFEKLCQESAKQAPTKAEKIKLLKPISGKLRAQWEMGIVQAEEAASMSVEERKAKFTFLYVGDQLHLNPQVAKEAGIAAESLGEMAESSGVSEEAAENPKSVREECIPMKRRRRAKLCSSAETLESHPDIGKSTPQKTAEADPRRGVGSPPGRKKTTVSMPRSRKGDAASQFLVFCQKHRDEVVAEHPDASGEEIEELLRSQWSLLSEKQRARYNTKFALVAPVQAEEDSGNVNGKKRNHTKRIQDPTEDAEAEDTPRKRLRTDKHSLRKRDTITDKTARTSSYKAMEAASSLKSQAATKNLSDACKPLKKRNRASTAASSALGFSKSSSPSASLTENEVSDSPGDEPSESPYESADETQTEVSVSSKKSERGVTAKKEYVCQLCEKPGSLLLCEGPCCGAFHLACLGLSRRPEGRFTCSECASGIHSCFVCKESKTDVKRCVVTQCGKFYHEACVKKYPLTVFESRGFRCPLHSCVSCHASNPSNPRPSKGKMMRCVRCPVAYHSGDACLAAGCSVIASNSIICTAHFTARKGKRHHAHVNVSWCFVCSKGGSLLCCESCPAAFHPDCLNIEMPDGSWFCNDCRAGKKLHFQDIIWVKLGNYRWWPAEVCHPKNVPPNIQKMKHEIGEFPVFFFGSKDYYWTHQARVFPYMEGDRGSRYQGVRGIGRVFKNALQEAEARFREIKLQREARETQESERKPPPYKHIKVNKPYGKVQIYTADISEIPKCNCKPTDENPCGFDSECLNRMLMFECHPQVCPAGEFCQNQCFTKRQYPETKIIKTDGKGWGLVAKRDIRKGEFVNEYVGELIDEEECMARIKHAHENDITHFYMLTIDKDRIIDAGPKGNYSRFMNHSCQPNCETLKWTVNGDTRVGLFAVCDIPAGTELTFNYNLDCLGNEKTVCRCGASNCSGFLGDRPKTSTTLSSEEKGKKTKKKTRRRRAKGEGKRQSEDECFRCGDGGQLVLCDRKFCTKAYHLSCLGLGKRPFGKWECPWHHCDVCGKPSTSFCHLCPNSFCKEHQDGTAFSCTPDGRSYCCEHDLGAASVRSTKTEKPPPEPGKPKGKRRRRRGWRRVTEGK

[4] = target: Multidrug resistance protein CDR2 (Candida albicans (strain SC5314 / ATCC MYA-2876) (Yeast), UniProt P78595); assay: blockers of Nile Red efflux by Candida CDR2 – S. cerevisiae AD1-8u, singleplex, Cherry Pick2 set, dose response (AID 623994); type: functional; settings: read-out: EC50_MICROM
[5] = target: T2, Mitochondrial peptide methionine sulfoxide reductase (Bos taurus, UniProt P54149); assay: Absorbance-based biochemical high throughput dose response assay for activators of Methionine sulfoxide reductase A (MsrA).; type: functional
T2 sequence (P54149 whole entry): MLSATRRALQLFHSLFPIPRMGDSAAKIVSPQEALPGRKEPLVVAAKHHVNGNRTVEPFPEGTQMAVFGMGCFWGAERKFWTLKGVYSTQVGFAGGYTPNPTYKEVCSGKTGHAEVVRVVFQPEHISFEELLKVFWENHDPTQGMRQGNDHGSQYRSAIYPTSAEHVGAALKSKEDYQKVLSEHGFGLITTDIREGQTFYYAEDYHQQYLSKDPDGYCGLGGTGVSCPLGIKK

[6] = target: Serine/threonine-protein kinase 3 (Homo sapiens, UniProt Q13188); type: functional;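 also: measured as one member of a kinome-wide kinase panel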
[7] = target: Dual specificity tyrosine-phosphorylation-regulated kinase 1B (Homo sapiens, UniProt Q9Y463); assay: Navigating the Kinome. Panel member name: DYRK1B; type: functional
[8] = THP-1 cell cytotoxicity, cytotoxicity control, set 4 (AID 504911); type: functional; settings: Mycobacterium tuberculosis
[9] = THP-1 cell cytotoxicity, dose response, cytotoxicity control, set 3 (AID 504852); type: functional; settings: Mycobacterium tuberculosis
[10] = Vero cell cytotoxicity, dose response, cytotoxicity control for M. tuberculosis growth inhibitor project, Vero cells, purified and synthesized compounds, set 4 (AID 504854); type: functional; settings: Mycobacterium tuberculosis
[11] = target: T3, Apoptotic protease-activating factor 1 (Homo sapiens, UniProt O14727); assay: SAR analysis of small molecule Activators of Apaf-1 in a Fluorescent assay.; type: functional; settings: read-out: EC50_Mean;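 also: caspase-3 cleavage of fluorogenic Rh110 DEVD substrate downstream of apoptosome activation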
T3 sequence (O14727 whole entry): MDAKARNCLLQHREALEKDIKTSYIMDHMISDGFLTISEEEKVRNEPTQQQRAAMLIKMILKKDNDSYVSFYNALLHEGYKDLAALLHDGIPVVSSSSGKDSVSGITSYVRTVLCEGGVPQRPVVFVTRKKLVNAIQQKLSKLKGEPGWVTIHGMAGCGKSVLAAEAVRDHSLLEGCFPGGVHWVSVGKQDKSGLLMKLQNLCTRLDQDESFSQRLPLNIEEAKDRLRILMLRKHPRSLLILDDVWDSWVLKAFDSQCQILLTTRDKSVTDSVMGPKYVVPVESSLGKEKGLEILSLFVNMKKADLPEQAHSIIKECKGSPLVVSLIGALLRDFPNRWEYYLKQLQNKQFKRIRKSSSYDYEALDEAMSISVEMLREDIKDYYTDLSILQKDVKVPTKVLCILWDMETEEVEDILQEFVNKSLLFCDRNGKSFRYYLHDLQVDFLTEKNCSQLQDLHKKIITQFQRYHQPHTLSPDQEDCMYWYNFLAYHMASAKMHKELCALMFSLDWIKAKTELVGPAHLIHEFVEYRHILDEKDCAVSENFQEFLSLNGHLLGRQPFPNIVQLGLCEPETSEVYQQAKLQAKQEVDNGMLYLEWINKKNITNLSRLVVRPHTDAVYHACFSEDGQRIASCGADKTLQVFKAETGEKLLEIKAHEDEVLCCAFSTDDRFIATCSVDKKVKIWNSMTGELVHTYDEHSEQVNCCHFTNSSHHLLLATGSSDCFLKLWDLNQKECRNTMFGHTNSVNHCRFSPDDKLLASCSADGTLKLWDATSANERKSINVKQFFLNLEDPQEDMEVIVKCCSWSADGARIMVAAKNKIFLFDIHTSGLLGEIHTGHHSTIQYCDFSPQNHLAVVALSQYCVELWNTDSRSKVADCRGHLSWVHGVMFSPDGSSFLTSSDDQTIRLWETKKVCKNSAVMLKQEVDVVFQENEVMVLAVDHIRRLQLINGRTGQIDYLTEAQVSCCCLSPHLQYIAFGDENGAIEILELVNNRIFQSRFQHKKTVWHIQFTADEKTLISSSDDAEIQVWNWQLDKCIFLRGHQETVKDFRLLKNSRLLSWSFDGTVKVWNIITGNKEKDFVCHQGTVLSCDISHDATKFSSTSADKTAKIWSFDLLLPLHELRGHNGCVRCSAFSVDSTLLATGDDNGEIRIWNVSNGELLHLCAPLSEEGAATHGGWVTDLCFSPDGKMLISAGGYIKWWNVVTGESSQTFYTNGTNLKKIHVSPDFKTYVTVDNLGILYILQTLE

[12] = target: DNA dC->dU-editing enzyme APOBEC-3G (Homo sapiens, UniProt Q9HC16); assay: inhibition of APOBEC3G ssDNA deamination – biochemical, fluorescence, single-stranded DNA substrate, SAR follow-up (AID 602136); type: functional; settings: read-out: IC50_Mean
[13] = target: DNA dC->dU-editing enzyme APOBEC-3A (Homo sapiens, UniProt P31941); assay: SAR analysis of small molecule inhibitors of APOBEC3A DNA Deaminase via a fluorescence-based single-stranded DNA deaminase assay.; type: functional; settings: read-out: IC50_Mean
[14] = target: Serine/threonine-protein kinase PLK3 (Homo sapiens, UniProt Q9H4B4); type: functional
[15] = target: Casein kinase II subunit alpha (Homo sapiens, UniProt P68400); type: functional
[16] = target: Mitogen-activated protein kinase 13 (Homo sapiens, UniProt O15264); type: functional
[17] = fluconazole-exposed Candida albicans growth modulators – fluorescence, retest, confirmation (AID 2467); type: functional, cell-based
[18] = target: T4, Serine/threonine-protein phosphatase (Candida dubliniensis (strain CD36 / CBS 7987 / NCPF 3949 / NRRLY-17841) (Yeast), UniProt B9W6M3); assay: blockers of CaCl2-induced CDRE-lacZ signaling – S. cerevisiae, luminescence, secondary, dose response (AID 2388); type: functional, cell-based;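 also: yeast reporter cells carrying a calcineurin-responsive lacZ construct stimulated with calcium chloride; luminescent beta-galactosidase reporter signal in whole cells rather than isolated phosphatase activity; potency for inhibition where a drop in reporter signal means calcineurin blockade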
T4 sequence (B9W6M3 whole entry): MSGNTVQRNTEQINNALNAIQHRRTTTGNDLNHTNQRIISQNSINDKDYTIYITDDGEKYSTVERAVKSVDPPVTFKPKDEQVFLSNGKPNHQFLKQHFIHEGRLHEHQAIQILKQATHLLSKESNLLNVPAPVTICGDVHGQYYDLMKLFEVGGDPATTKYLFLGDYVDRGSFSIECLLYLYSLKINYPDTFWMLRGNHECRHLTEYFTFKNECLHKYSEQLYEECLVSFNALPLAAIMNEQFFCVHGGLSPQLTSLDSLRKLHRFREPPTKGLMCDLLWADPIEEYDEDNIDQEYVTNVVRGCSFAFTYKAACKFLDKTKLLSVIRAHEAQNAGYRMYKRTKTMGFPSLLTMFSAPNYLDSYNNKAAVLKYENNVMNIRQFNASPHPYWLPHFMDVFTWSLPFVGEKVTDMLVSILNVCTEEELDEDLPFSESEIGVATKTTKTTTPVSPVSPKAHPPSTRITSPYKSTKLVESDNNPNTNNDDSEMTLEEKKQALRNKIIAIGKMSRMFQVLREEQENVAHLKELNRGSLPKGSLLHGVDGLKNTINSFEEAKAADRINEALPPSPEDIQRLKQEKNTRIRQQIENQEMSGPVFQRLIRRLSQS

[19] = target: ATP-dependent molecular chaperone HSP82 (Candida albicans (strain WO-1) (Yeast), UniProt C4YTQ8); assay: steroid-induced GRE reporter decrease in yeast – S. cerevisiae, luminescence, Hsp90 inhibitor project, dose response (AID 2400); type: functional, cell-based;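 also: beta-galactosidase luminescence from glucocorticoid response element reporter as proxy for Hsp90 function; inhibitor potency where signal loss means Hsp90 inhibition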
[20] = microbe, parasite or virus in culture; type: functional; settings: Mycobacterium tuberculosis
[21] = NIH-3T3 fibroblast cytotoxicity, dose response, cytotoxicity control, cell-based, fluorescence, Alamar Blue, secondary assay (AID 2327); type: functional;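 also: NIH-3T3 mouse fibroblasts cultured with fluconazole at 8 µg/mL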
[22] = Vero cell cytotoxicity, cytotoxicity control for M. tuberculosis inhibitor project, purified and synthesized samples, set 3 (AID 504684); type: functional
[23] = A Cell Based Secondary Assay to Explore Cytotoxicity in HepG2 Cells of Compounds that Modulate Mycobacterium tuberculosis in Media Containing Glycerol versus Media without Glycerol (2).; type: functional
[24] = A Cell Based Secondary Assay to Explore Cytotoxicity in THP-1 Cells of Compounds that Modulate Mycobacterium tuberculosis in Media Containing Glycerol versus Media without Glycerol (2).; type: functional
INS1 = assay: INS-1E survival protection against cytokine death – cell-based, luminescence, retest, dose response (AID 449756); type: functional; settings: Rattus norvegicus;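 also: cell death triggered by IL-1 beta plus TNF-alpha plus IFN-gamma mixture; protective hits raise ATP signal compared with cytokine alone wells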

Chain of DNA dC->dU-editing enzyme APOBEC-3G (Q9HC16 whole entry): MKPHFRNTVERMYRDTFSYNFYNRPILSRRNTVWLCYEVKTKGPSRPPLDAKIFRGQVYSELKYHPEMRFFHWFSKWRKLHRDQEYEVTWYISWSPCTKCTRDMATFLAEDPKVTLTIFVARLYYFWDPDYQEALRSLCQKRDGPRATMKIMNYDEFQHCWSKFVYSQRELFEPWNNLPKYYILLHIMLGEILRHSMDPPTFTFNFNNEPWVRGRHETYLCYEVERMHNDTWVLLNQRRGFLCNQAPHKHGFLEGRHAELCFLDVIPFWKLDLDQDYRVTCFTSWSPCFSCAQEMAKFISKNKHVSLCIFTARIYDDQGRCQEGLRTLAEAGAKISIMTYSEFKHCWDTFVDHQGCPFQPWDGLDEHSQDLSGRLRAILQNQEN
Chain of Serine/threonine-protein kinase 3 (Q13188 whole entry): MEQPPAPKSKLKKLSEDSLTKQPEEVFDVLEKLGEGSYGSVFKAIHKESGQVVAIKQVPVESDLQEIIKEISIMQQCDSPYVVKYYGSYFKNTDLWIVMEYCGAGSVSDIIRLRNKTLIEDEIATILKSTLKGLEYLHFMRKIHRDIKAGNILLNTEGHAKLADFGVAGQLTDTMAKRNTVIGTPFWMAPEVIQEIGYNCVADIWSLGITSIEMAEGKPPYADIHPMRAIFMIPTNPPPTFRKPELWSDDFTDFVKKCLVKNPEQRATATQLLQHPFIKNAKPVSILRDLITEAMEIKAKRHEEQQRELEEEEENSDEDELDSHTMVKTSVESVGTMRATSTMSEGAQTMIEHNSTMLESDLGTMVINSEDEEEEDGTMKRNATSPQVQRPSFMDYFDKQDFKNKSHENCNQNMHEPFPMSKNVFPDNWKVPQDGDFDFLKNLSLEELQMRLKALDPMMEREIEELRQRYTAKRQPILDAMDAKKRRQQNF
Chain of DNA dC->dU-editing enzyme APOBEC-3A (P31941 whole entry): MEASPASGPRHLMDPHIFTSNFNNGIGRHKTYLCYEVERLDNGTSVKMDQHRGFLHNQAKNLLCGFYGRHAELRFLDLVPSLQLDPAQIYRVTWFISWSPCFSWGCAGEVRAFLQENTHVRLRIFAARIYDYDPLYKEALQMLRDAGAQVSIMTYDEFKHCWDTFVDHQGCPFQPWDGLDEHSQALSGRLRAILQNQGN
Chain of Ras and Rab interactor 1/Tyrosine-protein kinase ABL1 (P00519 whole entry): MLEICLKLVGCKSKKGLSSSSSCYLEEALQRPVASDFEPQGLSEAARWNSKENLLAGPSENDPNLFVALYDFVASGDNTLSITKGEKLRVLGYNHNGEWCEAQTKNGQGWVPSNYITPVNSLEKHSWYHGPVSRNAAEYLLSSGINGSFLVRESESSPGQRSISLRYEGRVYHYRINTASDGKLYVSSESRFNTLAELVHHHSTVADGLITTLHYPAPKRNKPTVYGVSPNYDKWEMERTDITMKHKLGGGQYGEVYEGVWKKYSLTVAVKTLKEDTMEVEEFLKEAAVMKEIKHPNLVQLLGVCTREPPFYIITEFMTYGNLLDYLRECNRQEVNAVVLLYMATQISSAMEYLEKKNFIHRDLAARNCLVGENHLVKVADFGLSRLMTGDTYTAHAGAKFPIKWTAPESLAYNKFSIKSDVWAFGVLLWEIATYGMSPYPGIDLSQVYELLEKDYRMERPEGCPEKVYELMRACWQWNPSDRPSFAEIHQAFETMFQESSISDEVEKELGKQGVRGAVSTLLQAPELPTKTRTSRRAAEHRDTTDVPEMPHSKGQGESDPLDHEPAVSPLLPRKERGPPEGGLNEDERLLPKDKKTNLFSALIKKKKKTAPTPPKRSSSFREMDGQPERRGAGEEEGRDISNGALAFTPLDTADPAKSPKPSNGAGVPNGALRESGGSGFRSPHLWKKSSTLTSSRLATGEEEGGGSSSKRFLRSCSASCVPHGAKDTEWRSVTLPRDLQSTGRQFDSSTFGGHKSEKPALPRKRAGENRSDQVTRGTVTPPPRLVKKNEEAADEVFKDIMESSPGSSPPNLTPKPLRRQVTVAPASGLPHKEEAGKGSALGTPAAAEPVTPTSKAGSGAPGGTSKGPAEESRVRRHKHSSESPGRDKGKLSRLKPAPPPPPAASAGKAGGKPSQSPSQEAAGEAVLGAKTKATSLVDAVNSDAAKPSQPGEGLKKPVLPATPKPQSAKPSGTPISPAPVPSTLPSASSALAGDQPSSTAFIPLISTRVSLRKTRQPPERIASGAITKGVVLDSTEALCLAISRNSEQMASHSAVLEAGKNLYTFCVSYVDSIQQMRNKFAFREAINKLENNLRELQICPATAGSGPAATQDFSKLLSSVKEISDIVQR
Chain of Ras and Rab interactor 1/Tyrosine-protein kinase ABL1 (Q13671 whole entry): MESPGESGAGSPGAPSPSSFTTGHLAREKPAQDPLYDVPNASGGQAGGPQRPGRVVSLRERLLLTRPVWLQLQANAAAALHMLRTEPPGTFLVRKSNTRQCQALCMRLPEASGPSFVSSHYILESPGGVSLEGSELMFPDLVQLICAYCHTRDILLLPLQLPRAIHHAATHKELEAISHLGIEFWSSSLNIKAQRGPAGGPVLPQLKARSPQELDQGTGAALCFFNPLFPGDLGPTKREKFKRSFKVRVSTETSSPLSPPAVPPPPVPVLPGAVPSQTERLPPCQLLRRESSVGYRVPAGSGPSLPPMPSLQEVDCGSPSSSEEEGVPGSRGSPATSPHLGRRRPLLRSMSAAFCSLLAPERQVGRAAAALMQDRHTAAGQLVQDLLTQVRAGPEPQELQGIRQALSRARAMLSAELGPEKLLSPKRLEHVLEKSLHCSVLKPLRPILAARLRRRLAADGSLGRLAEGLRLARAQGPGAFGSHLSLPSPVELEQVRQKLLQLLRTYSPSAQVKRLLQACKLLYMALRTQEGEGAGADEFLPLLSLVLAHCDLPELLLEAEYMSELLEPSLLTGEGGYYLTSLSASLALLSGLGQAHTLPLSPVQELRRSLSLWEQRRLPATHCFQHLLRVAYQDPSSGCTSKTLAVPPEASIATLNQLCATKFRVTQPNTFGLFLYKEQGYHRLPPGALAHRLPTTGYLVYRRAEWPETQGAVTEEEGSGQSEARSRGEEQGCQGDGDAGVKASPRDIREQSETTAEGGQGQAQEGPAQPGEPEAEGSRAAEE
Chain of Serine/threonine-protein kinase PLK3 (Q9H4B4 whole entry): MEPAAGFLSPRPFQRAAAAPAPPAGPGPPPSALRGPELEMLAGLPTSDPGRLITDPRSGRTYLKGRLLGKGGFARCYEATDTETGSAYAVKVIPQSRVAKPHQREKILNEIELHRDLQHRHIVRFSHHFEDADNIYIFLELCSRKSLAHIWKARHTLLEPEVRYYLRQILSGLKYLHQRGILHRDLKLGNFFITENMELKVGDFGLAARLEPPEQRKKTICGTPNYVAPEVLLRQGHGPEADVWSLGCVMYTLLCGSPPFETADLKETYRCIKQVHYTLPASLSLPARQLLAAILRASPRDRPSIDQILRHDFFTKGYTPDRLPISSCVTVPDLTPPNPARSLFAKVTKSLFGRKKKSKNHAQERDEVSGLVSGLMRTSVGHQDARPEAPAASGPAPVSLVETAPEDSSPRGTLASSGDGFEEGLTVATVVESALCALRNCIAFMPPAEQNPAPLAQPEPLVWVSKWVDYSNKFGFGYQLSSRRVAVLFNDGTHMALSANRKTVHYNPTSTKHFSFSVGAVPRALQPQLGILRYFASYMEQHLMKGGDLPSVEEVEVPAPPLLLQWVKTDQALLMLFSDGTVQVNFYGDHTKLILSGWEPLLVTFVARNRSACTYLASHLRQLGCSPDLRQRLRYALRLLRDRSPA
Chain of Casein kinase II subunit alpha (P68400 whole entry): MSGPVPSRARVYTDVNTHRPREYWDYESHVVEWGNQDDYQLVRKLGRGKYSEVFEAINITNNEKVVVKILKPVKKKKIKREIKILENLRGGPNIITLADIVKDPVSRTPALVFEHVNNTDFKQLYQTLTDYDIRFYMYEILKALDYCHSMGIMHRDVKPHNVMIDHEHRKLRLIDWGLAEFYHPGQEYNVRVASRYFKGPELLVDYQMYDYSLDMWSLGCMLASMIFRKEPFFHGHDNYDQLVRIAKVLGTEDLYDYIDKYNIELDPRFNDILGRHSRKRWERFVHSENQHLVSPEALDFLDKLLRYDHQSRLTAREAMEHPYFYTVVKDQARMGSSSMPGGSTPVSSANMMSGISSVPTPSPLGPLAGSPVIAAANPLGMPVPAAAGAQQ
Chain of Dual specificity tyrosine-phosphorylation-regulated kinase 1B (Q9Y463 whole entry): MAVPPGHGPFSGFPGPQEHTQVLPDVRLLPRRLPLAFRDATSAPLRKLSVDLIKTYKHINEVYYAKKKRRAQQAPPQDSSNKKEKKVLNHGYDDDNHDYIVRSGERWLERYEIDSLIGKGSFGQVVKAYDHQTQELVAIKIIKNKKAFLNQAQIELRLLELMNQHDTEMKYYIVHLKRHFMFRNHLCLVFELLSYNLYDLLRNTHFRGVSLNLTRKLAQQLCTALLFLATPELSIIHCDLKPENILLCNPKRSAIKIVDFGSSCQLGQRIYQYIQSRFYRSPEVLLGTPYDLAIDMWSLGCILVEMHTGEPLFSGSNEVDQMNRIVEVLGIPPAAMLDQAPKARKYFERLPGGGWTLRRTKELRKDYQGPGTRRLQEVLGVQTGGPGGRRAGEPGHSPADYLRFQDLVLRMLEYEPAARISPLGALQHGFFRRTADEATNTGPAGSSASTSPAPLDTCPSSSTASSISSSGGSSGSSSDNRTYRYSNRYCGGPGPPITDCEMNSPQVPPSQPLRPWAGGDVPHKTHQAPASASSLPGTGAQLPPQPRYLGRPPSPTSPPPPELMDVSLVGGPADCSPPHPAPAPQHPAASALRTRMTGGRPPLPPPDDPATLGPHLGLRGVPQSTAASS
Chain of Mitogen-activated protein kinase 13 (O15264 whole entry): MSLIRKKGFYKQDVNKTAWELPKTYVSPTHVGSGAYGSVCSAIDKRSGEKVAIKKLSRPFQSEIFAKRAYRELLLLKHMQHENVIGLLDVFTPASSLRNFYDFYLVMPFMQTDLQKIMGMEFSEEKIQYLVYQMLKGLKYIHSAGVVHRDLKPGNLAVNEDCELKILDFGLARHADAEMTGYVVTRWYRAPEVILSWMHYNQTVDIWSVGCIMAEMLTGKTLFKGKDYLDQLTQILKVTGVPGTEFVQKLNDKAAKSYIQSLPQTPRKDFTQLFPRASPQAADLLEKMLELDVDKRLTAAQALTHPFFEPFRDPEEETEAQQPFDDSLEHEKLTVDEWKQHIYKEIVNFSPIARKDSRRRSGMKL

CC[C@]12c3[nH]c4ccc(OC)cc4c3CCN1C(=O)C(CC(=O)NCc1cccc(C(F)(F)F)c1)C[C@@H]2C(=O)N1CCN(C(=O)c2ccco2)CC1 (some centres not stated)
IC50 [1]: 20.1 µM (inactive)

N=C1/C(=C/c2coc3ccccc3c2=O)C(=O)N=C2SC(c3ccco3)=NN12
IC50 [2]: 11.6 µM (active)
AC50 [3]: 4.93 µM (active)

O=C(NCCC1=CCCCC1)C1CCC(CNc2[nH]c(=S)nc3ccccc23)CC1 (configuration not stated)
EC50 [4]: 72.6 µM (active)

O=c1[nH]c(=S)[nH]cc1Oc1ccc(Cl)cc1
EC50 [5]: > 104 µM (inactive)

CC(Oc1cc(-c2cnn(C3CCNCC3)c2)cnc1N)c1c(Cl)ccc(F)c1Cl (configuration not stated)
Ki [6]: 3.16 µM (active) and 794 nM (active)
Ki [7]: > 2.51 µM (inactive)

CC(Sc1nc2ccccc2c(=O)[nH]1)C(=O)NC1CCCCC1 (configuration not stated)
CC50 [8]: > 100 µM (active)
CC50 [9]: > 100 µM (active)
CC50 [10]: > 100 µM (active)

COc1ccc(C)c(NCC(C)C(=O)O)c1 (configuration not stated)
EC50 [11]: > 100 µM (inactive)

c1cncc(-c2nc3sc4c(c3c3nncn23)CCCC4)c1
IC50 [12]: > 99 µM (inactive)
IC50 [13]: > 99 µM (inactive)

Nc1csc(Nc2ccccc2)n1
Ki [14]: 2.51 µM (active)
Ki [15]: 10 µM (active)

O=C(NC1CCCCC1)c1nn2c(C(F)(F)F)cc(-c3ccc(Br)cc3)nc2c1Cl
IC50 [12]: > 99 µM (inactive)
IC50 [13]: > 99 µM (inactive)

CCOc1nc(NC(=O)Cc2cc(OC)ccc2OC)cc(N)c1C#N
Ki [16]: > 7.94 µM (inactive)

Cc1ccc2ccc3ccc(C)nc3c2n1 [NEOCUPROINE]
EC50 [17]: 0.133 µM (active)
EC50 [18]: > 180 µM (inactive)
EC50 [19]: > 150 µM (inactive)
CC50 [20]: 36.4 µM (active)
EC50 [21]: 147 µM (active)
CC50 [22]: 1.23 µM (active)
CC50 [23]: 0.21 µM (active)
CC50 [24]: < 0.2 µM (active)
AC50 (INS1): < 0.195 µM (active)
